Source: US20260085034A1, “N-(BENZHYDRYL)CYCLOALKYLCARBOXAMIDE DERIVATIVES AS INHIBITORS OF GLYCOGEN SYNTHASE 1 (GYS1) AND METHODS OF USE THEREOF” (Maze Therapeutics, Inc., priority 2022, published 2026)

Columns and labels:
[1] = target: T1, recombinant hGYS1/GN1 protein (Homo sapiens, UniProt P13807); assay: GYS1 coupled enzyme assay (PK/LDH); format: biochemical; details: geometric mean of at least 2 assay runs; NADH absorbance at 340 nm
T1 sequence (P13807 1-737): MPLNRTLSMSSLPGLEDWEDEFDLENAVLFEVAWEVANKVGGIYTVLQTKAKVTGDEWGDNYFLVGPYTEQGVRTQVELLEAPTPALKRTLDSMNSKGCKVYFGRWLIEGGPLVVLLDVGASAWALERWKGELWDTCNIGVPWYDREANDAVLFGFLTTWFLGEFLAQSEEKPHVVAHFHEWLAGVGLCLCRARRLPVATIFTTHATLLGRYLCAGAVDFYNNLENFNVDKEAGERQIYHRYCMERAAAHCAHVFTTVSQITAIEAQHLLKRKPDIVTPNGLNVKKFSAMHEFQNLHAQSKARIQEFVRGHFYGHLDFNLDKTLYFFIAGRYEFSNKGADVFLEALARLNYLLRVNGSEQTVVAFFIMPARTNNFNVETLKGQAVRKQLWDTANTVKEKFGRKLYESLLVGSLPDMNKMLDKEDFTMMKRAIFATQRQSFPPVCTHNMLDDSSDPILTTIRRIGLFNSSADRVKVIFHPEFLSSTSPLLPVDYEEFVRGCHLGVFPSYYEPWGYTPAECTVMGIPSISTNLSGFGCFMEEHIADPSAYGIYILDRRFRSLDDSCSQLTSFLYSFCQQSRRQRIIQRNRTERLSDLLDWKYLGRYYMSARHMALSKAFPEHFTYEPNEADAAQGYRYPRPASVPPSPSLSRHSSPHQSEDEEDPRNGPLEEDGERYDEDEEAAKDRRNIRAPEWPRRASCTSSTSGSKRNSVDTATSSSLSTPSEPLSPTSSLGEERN
T1 sequence (P46976 1-350 partner): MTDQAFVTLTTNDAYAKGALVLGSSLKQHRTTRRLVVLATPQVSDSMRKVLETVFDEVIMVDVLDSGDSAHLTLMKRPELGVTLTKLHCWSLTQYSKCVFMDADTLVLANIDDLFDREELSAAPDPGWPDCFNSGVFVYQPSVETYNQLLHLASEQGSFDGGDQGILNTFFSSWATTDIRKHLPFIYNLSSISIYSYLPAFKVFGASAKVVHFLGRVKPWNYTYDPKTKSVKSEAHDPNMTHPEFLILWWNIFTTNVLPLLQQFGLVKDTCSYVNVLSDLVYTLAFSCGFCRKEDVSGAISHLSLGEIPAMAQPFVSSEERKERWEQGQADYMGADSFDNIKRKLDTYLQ
Excerpt: (§1) The GYS1 coupled enzyme assay is a kinetic biochemical assay that indirectly quantifies the rate of glycogen synthesis by coupling the conversion of GYS1 substrate UDP-glucose into UDP with downstream enzymatic reactions. UDP is released from UDP-glucose as glucose monomers are linked into the growing glycogen strand by GYS1. The coupled assay then proceeds with pyruvate kinase utilizing UDP and phospho(enol)pyruvate (PEP) to form pyruvate. Lactate dehydrogenase then converts pyruvate and NADH into lactate and NAD+. Oxidation of NADH to NAD+ can be measured continuously with a plate reader by quantifying the decrease in NADH absorbance at 340 nm over time.
Compounds that inhibit the hGYS1 enzyme and, subsequently, the downstream conversion of NADH to NAD+, were tested using assay ready plates (black, clear bottom 384 well plates) in a final DMSO reaction volume of 2.5% DMSO. The Assay Buffer contained 50 mM Tris pH 7.5, 2 mM MgCl2, and 100 mM KCl. Fresh stocks of BSA at a final concentration of 0.02% and TCEP at 1 mM were added before splitting buffer into hGYS1 buffer and substrate buffer. To the hGYS1 buffer, rabbit liver glycogen was added at a final concentration of 0.2% glycogen. Glucose-6-Phosphate was added at 1 mM, recombinant hGYS1/GN1 protein was added at 50 nM to the substrate buffer, phosphoenolpyruvate (PEP) was added at 2 mM, UDP-Glucose was added at 0.8 mM, NADH) was added at 0.6 mM, and Pyruvate Kinase/Lactate Dehydrogenase was added at 20 units/mL. The reaction was initiated by mixing hGYS1 buffer and substrate buffer at a 1:1 ratio. Both buffers were plated using a liquid dispensing device with hGYS1 buffer plated first followed by the substrate buffer. Plates were spun briefly to eliminate air bubbles and are immediately read in continuous mode at an absorbance of 340 nm, for 10 time points in one-minute increments, for a total of 10 minutes. The slope from these 10 time points was normalized to the positive and negative control wells. The duplicate % inhibition values are then averaged and fit to a Hill equation for dose response according to the Levenberg-Marquardt algorithm with the Hill equation maximum set to 100 and the minimum set to 0.
The results are shown in Table 3 below, which reports the IC50 of each compound. Unless otherwise specified, IC50 values are reported as the geometric mean of at least 2 assay runs on separate days. Each run represents the average of a technical replicate, where each compound was assayed twice in the same plate. As shown in the table below, the compounds of the present invention are potent inhibitors of human GYS1.

[2] = target: T2, recombinant hGYS2/GN1 protein (Homo sapiens, UniProt P54840); assay: GYS2 coupled enzyme assay (PK/LDH); format: biochemical; details: geometric mean of at least 2 assay runs; NADH absorbance at 340 nm
T2 sequence (P54840 1-703): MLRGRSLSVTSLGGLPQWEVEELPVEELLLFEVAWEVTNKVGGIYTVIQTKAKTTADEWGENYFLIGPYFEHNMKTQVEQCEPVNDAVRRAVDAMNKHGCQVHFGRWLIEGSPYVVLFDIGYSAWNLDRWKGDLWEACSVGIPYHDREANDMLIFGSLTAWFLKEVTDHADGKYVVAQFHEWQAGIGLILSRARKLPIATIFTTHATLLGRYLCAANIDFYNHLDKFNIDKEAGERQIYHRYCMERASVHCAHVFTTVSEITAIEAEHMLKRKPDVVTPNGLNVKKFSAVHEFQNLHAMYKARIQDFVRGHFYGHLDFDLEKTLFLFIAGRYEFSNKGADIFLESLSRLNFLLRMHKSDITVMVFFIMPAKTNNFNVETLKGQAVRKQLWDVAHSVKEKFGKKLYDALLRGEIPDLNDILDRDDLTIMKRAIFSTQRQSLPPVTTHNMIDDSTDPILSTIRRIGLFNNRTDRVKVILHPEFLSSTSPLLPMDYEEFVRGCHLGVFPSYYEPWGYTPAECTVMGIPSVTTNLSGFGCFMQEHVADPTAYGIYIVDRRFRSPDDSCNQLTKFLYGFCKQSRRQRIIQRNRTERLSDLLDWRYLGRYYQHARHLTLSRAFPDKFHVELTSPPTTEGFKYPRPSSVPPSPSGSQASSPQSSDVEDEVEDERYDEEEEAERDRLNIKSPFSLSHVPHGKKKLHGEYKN
T2 sequence (P46976 1-350 partner): T1 sequence (P46976 1-350 partner)
Excerpt: as §1, with “GYS2” for “GYS1”, “GYS2.” for “GYS1.”
Compounds that inhibit the hGYS2 enzyme and, subsequently, the downstream conversion of NADH to NAD+, were tested using assay ready plates (black, clear bottom 384 well plates) in a final DMSO reaction volume of 2.5% DMSO. The Assay Buffer contained 50 mM Tris pH 7.5, 2 mM MgCl2, and 100 mM KCl. Fresh stocks of BSA at a final concentration of 0.02% and TCEP 1 mM were added before splitting buffer into hGYS2 buffer and substrate buffer. To the hGYS2 buffer, rabbit liver glycogen was added at a final concentration of 0.2% glycogen. Glucose-6-Phosphate was added at 2 mM, recombinant hGYS2/GN1 protein was added at 200 nM to the substrate buffer, phosphoenolpyruvate (PEP) was added at 2 mM, UDP-Glucose was added at 2 mM, NADH was added at 0.6 mM, and Pyruvate Kinase/Lactate Dehydrogenase was added at 20 units/mL. The reaction was initiated by mixing hGYS2 buffer and substrate buffer at a 1:1 ratio. Both buffers were plated using a liquid dispensing device with hGYS2 buffer plated first followed by the substrate buffer. Plates were spun briefly to eliminate air bubbles and are immediately read in continuous mode at an absorbance of 340 nm, for 10 time points in one-minute increments, for a total of 10 minutes. The slope from these 10 time points was normalized to the positive and negative control wells. The duplicate % inhibition values are then averaged and fit to a Hill equation for dose response according to the Levenberg-Marquardt algorithm with the Hill equation maximum set to 100 and the minimum set to 0.
The results are shown in Table 5 below, which reports the IC50 of each compound. Unless otherwise specified, IC50 values are reported as the geometric mean of at least 2 assay runs on separate days. As shown in the table below, the compounds of the present invention are not potent inhibitors of human GYS2. […] Each run represents the average of a technical replicate, where each compound was assayed twice in the same plate.

| IC50 [1] [nM] | IC50 [2] [nM] | SMILES |
| --- | --- | --- |
| 735 | > 100000 | CC(C)c1ccc([C@@H](NC(=O)C2CC2)c2cccnc2N)cc1 (single isomer, unassigned) [compound 51] |
| 591 | > 100000 | CC(C)c1ccc([C@@H](NC(=O)C2CC2)c2ccccc2)cc1F (single isomer, unassigned) [compound 52] |
| 1380 | > 100000 | CC(C)c1ccc([C@@H](NC(=O)C2CC2)c2ccccc2Cl)cc1 (single isomer, unassigned) [compound 58] |
| 710 | > 100000 | CC(C)c1ccc([C@@H](NC(=O)C2CC2)c2ccccc2NC(=O)C2CC2)cc1 (single isomer, unassigned) [compound 61] |
| 404 | > 100000 | CC(C)c1ccc([C@@H](NC(=O)C2CC2)c2ccccc2N)cc1 (single isomer, unassigned) [compound 64] |
| 514 | > 100000 | Cc1ccccc1[C@H](NC(=O)C1CC1)c1ccc(C(C)C)cc1 (single isomer, unassigned) [compound 65] |
| 2100 | > 100000 | Cc1cccc([C@H](NC(=O)C2CC2)c2ccc(C(C)C)cc2)c1 (single isomer, unassigned) [compound 66] |
| 1820 | > 100000 | CC(C)c1ccc([C@@H](NC(=O)C2CC2)c2ccnn2C)cc1 (single isomer, unassigned) [compound 69] |
| 397 | > 100000 | COc1ccccc1[C@H](NC(=O)C1CC1)c1ccc(C(C)C)cc1 (single isomer, unassigned) [compound 71] |
| 1790 | – | CC(C)c1ccc([C@@H](NC(=O)C2CC2)c2ccccc2NC(=O)[C@H]2CCN2)cc1 [compound 50, (R)-N-(2-((R)-cyclopropanecarboxamido(4-isopropylphenyl)methyl)phenyl)azetidine-2-carboxamide] |
| 2420 | – | CC(=O)N[C@H]1CCC[C@H]1C(=O)N[C@@H](c1ccccc1)c1ccc(C(C)C)cc1 [compound 55, (1R,2S)-2-acetamido-N-((S)-(4-isopropylphenyl)(phenyl)methyl)cyclopentane-1-carboxamide] |

Further lines, the compound ahead of its results:

| SMILES | IC50 [1] [nM] | IC50 [2] [nM] |
| --- | --- | --- |
| CC(C)c1ccc([C@@H](NC(=O)[C@H]2C[C@@H]2F)c2ccccc2NC(N)=O)cc1F (single isomer, unassigned) [compound 10] | 194 | > 100000 |
| CC(C)c1ccc([C@@H](NC(=O)C2CC2)c2cccc3[nH]c(=O)oc23)cc1 (single isomer, unassigned) [compound 15] | 883 | > 100000 |
| NC(=O)Nc1ccccc1[C@H](NC(=O)C1CC1)c1ccc(C2CCC2)cc1 (single isomer, unassigned) [compound 18] | 964 | > 100000 |
| CC(C)c1ccc([C@@H](NC(=O)C2CC2)c2cccc3[nH]c(=O)[nH]c23)cc1 (single isomer, unassigned) [compound 29] | 169 | > 100000 |
| CNc1ccccc1[C@H](NC(=O)C1CC1)c1ccc(C(C)C)cc1 (single isomer, unassigned) [compound 39] | 502 | > 100000 |
| CC(=O)Nc1ccc(F)cc1[C@H](NC(=O)C1CC1)c1ccc(C(C)C)cc1 (single isomer, unassigned) [compound 44] | 378 | > 100000 |
| CC(=O)Nc1ccccc1[C@H](NC(=O)C1CC1)c1ccc(C(C)C)cc1 [compound 1, (R)-N-((2-acetamidophenyl)(4-isopropylphenyl)methyl)cyclopropanecarboxamide] | 285 | > 100000 |
| CC(C)c1ccc([C@@H](NC(=O)[C@H]2C[C@@H]2F)c2ccccc2NC(=O)C2CCN(CC(F)(F)F)CC2)cc1 [compound 9, N-(2-((R)-((1R,2S)-2-fluorocyclopropane-1-carboxamido)(4-isopropylphenyl)methyl)phenyl)-1-(2,2,2-trifluoroethyl)piperidine-4-carboxamide] | 956 | > 100000 |
